For one assay, the system named is D^b. The following applies: Flu determinants; cited from earlier work.
Assay [1] has as its target H-2D^b (mouse (endogenous in RMA/s)). As to the kind of experiment: flow cytometry on cells. A general note: In flow cytometry, cells or beads pass a laser one at a time.
For the next assay, the target named is T1, H-2D^b (Mus musculus, UniProt P01899).
T1 sequence (P01899 25-362): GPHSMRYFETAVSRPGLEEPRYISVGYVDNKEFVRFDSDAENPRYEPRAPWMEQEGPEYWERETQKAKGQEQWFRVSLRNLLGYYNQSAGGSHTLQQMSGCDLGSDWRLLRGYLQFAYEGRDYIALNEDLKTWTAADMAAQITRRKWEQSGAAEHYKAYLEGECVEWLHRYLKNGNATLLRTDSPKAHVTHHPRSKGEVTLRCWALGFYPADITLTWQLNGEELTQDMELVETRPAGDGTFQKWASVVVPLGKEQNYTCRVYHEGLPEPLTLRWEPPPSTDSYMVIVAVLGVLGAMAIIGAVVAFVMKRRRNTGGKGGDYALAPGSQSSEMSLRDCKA
T1 sequence (P01887 21-119 partner): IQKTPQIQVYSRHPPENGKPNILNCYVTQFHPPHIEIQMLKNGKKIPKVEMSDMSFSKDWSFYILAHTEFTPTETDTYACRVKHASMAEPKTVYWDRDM
As to the kind of experiment: Stability. It counts as binding. As to conditions: for half-life of peptide/H-2D^b complexes: RMA/s cells loaded overnight at 29 °C, washed, decay at 37 °C, flow cytometry; for pMHC stability (in words): versus wild type site V peptide, RMA/s decay at 37 °C.

Assay [2] has as its system polyclonal site V-specific T cells. As to the kind of experiment: Intracellular IFN-γ, peptide-stimulated polyclonal site V-specific T cells. It counts as cell-based, mice. As to conditions: 10^−7–10^−12 M peptide; versus wild type site V.
For the next assay, the system named is TCR-V T cells. The assay is classed as cell-based, mice. As to conditions: for functional avidity for TCR-V T cells (in words): 10^−7–10^−12 M peptide, versus wild type site V.
For the next assay, the system named is naïve TCR-V T cells. As to the kind of experiment: In vivo proliferation of CFSE-labeled naïve TCR-V cells. Details: species or system B6 mice. As to conditions: peptide s.c. 100 μg in IFA, or rVV i.v. 10^7 PFU; 3 days.

Consider 9 substances from article PMC3536056 (Journal of immunology (Baltimore, Md. : 1950), 2012).

“Also recorded” adds a separate entry of the source. Some results are limits rather than exact numbers.

Turning to “PA224–233: dominant D^b-Flu determinant (SSLENFRAYV; UniProt P03433 224-233, looked up, fragment)”, the “estimated half-life of D^b pMHC” value in the assay with D^b was approximately 16 hours.
Consider ASNENMETM [NP366–374], for which the “estimated half-life of D^b pMHC” value in the assay with D^b is recorded as ~ 4 hours.
site V variant peptide G490A (…) showed a half-life of the pMHC complex in assay [1] of 2.75 hours.
Turning to site V variant peptide Q489A (…), in assay [1], the fold increase of relative affinity against wild type site V is 4 fold and the half-life of the pMHC complex came to 4 hours.
As for SAINNYAQKL [site I, reference compound], on H-2D^b, the “half-life of peptide/H-2D^b complexes” value is on record as “greater than 4 hours” and the “pMHC stability (in words)” value was “most stable”.
Take QAINNLDNL [G490A]: in assay [2], the “functional avidity for polyclonal site V-specific T cells (in words)” value is on record as “not increased”. Besides, in the assay on TCR-V T cells, the “reduction of functional avidity for TCR-V T cells” value is given as “five” and the “functional avidity for TCR-V T cells (in words)” value is “not increased”. At H-2D^b, the “half-life of peptide/H-2D^b complexes” value is approximately 2.75 h and the “pMHC stability (in words)” value is “formed more stable pMHC than the wild type site V peptide; also recorded: moderately increased stability compared to wt site V; also recorded: modest increase in pMHC stability”.
Turning to AGINNLDNL [Q489A], the “functional avidity for polyclonal site V-specific T cells (in words)” value in assay [2] was “not increased”. For the same substance, the “functional avidity for TCR-V T cells (in words)” value in the assay on TCR-V T cells is recorded as “not increased”. The “TCR-V division on bypassing cross-presentation (in words)” value with naïve TCR-V T cells is on record as “almost all of the TCR-V cells underwent division”. Also, on H-2D^b, the “half-life of peptide/H-2D^b complexes” value was “approximately 4 hours” and the “pMHC stability (in words)” value is recorded as “formed more stable pMHC than the wild type site V peptide; also recorded: most dramatic increase in pMHC stability”.
Regarding SV40 TAg site I peptide (…), the half-life of the pMHC complex in assay [1] was more than 4 hours.
SV40 TAg site V peptide (…) came in with a half-life of the pMHC complex in assay [1] of 2 hours.
